Converted amounts (≈) assume the structure as drawn. The source made the active and inactive calls. The calls are words filed in the database; no cut-off is given here.
Experiments:
Assay type in all cases: functional
HeLa = test: Cytotoxicity against human HeLa cells at 10 ug/ml by MTT assay
WiDr = test: Cytotoxicity against human WiDr cells at 10 ug/ml by MTT assay
Daoy = test: Cytotoxicity against human Daoy cells

In the case of C/C1=C\C(=O)CC2=C[C@@H](OC2=O)[C@@H](C(C)C)CC(=O)/C(C)=C/CC1 [SARCOSTOLIDE C], the inhibition at 10 µg/mL (HeLa) is reported as 1.65%, the inhibition at 10 µg/mL (WiDr) is reported as 19.4% and the Activity (Daoy) is reported as “inactive”.

For C/C1=C/C/C=C(\C)C(=O)C[C@H](C(C)C)[C@H]2C=C(CC(=O)C1)C(=O)O2 [SARCOSTOLIDE F], the inhibition at 10 µg/mL (HeLa) was 7.32%, the inhibition at 10 µg/mL (WiDr) was 29.8% and the Activity (Daoy) was “inactive”.

In the case of C/C1=C/C=C/[C@H](C)C(=O)C[C@H](C(C)C)[C@H]2C=C(CC(=O)C1)C(=O)O2 [SARCOSTOLIDE E], the inhibition at 10 µg/mL (HeLa) is reported as 16.8%, the inhibition at 10 µg/mL (WiDr) is reported as 27.5% and the EC50 (Daoy; read-out: ED50 (the source's name)) is reported as 5.5 µg/mL (≈ 16.6 µM).

C/C1=C\CC[C@@H](C)CC(=O)CC2=C[C@@H](OC2=O)[C@@H](C(C)C)CC1=O [SARCOSTOLIDE G] was tested, and the inhibition at 10 µg/mL (HeLa) was 18.4%, the inhibition at 10 µg/mL (WiDr) was 20.1% and the Activity (Daoy) was “inactive”.

C/C1=C/CC/C(C)=C/C(=O)CC2=C[C@@H](OC2=O)[C@@H](C(C)C)CC1=O [SARCOSTOLIDE A] was tested, and the inhibition at 10 µg/mL (HeLa) was 22.3%, the inhibition at 10 µg/mL (WiDr) was 20% and the Activity (Daoy) was “inactive”.

For C/C1=C/C(=O)CC2=C[C@@H](OC2=O)[C@@H](C(C)C)CC(=O)/C(C)=C/CC1 [SARCOSTOLIDE B], the inhibition at 10 µg/mL (HeLa) was 5.88%, the inhibition at 10 µg/mL (WiDr) was 8.31% and the Activity (Daoy) was “inactive”.

In the case of C/C1=C/C(=O)CC2=C[C@@H](OC2=O)[C@H](C(C)C)CC(=O)/C(C)=C/CC1 [SARCOSTOLIDE D], the inhibition at 10 µg/mL (HeLa) is reported as 11.1%, the inhibition at 10 µg/mL (WiDr) is reported as 29.1% and the Activity (Daoy) is reported as “inactive”.

— ChEMBL document CHEMBL1157477, “Cembrane diterpenoids from the taiwanese soft coral Sarcophyton stolidotum” (2008)
